# Values of other authors, collected in patent US9962342B1, “Pharmaceutical composition containing guaifenesin and application thereof” (Sunny Pharmtech Inc., priority 2017, dated 2018).
# Settings: in vivo
structure (smiles),measurement,value
COc1ccccc1OCC(O)CO (stereo not shown) [Guaifenesin],half-life,approximately 1 hour
